Measured values reported in patent publication US8361516B2, “Composition comprising sarsasapogenin” (priority 2006, dated 2013).

Legend:
3T3-L1 cells [1] = experiment: Stimulation of differentiation: G3PDH activity; assay type: cell-based; settings: mean for n = 3 tests
Description: Principle: after an in vivo proliferation phase, the pre-adipocytes begin differentiating under the influence of specific endogenous factors (in particular, glucocorticoids and insulin). In vitro, those factors are included in the conventional cocktail used to trigger differentiation.
The maintenance or amplification of differentiation when the cells are subsequently cultured in a simple maintenance medium is determined by assay of glycerol-3-phosphate dehydrogenase, G3PDH (or GPDH). The enzyme is involved in energy metabolism. Its activity regularly increases through the differentiation process.
Protocol: as previously, 3T3-L1 cells were cultured to confluence, then underwent differentiation induction with the conventional cocktail and were incubated in the absence or presence of sarsasapogenin at various concentrations. After 3 days of incubation, the differentiation cocktail was replaced by culture maintenance medium in the presence or absence of sarsasapogenin. After 3 days of incubation, the cell layers were harvested and G3PDH activity determined.

human adipocytes = experiment: Stimulation of lipid uptake in human adipocytes; assay type: cell-based
Text: 4. Stimulation of Lipid Uptake by 3T3-L1 Cells and Human Adipocytes
The results were reproduced using human adipocytes.

mature adipocytes = experiment: Gene expression profile, effect on mature adipocytes (CodeLink Whole Genome chips); assay type: cell-based, Human; settings: mature adipocytes exposed 24 h
Description: (§1) Two studies were conducted: one addressed the effect of sarsasapogenin on differentiation using a pre-adipocyte culture; the other addressed the effect of sarsasapogenin on mature adipocytes.
(§2) Human pre-adipocyte cells were inoculated and cultured (multiplication) for 5 days. Then: • either the cells were exposed to the induction medium in the presence or absence of sarsasapogenin for 8 or 24 h before culture arrest (study of the effect of sarsasapogenin on differentiation), • or the cells were exposed to the differentiation medium for 10 days, yielding mature adipocytes, then exposed or not exposed to sarsasapogenin for 24 h (study of the effect of sarsasapogenin on maturation).
(§3) At each time point, the mRNA of the cells was extracted using a commercially available kit (Roche Kit V6—Extraction of total RNA). In parallel, solvent controls were run and subjected to extraction in the same manner. The expression profile of the gene sequences was determined using CodeLink Whole Genome chips for each sample of RNA purified. The values obtained were normalized on the controls.

[2] = system: Human pre-adipocyte cells; experiment: Gene expression profile, effect on differentiation (pre-adipocyte culture, CodeLink Whole Genome chips); assay type: cell-based
Description: as §1, §2, §3

3T3-L1 cells [3] = experiment: Stimulation of lipid uptake, red oil staining with image analysis; assay type: cell-based; settings: mean for n = 3 tests
Description: Principle: adipocyte differentiation is a decisive stage in the transformation of pre-adipocytes into lipid-laden mature adipocytes. The intracellular accumulation of lipids is determined by conventional red oil staining (neutral lipid marker). The stained lipids can then be quantified under the microscope.
Protocol: 3T3-L1 cells were inoculated and cultured for 4 days (multiplication). This was followed by a differentiation phase (incubation with the conventional differentiation cocktail) and a maturation phase (maturation cocktail) in the absence or presence of sarsasapogenin at various concentrations.
At the end of that period, the cells were washed, fixed and stained with red oil. The cell layers were digitally photographed and the red staining quantified by image analysis.
The percentage red oil areas, shown in table 1, were expressed relative to the untreated control cells and the test was validated by comparison with pioglitazone (10 μM), the positive control for differentiation stimulation.

3T3-L1 cells [4] = experiment: Residual proliferation capability during the differentiation phase (Hoechst test); assay type: cell-based; settings: 3 days with differentiation cocktail
Description: The pre-adipocytes undergo a multiplication phase (clonal expansion) before beginning to differentiate.
A product stimulating proliferation would thus enable adipocytes that have already entered the differentiation phase to maintain a replication capability.
Protocol: 3T3-L1 cells were inoculated and cultured to confluence over 4 days (clonal expansion). The conventional differentiation cocktail was added to the culture and the cells were incubated in the absence (control) or in the presence of rising concentrations of sarsasapogenin for 3 days. Following incubation, the cell layers were harvested and subjected to a Hoechst test to quantify cell proliferation vs. the proliferation of the control cells and the cells incubated in the presence of pioglitazone (positive control).

[5] = time points 8 and 24 h of differentiation
[6] = values normalized on the controls, time point not stated

Question: How did the “Change in G3PDH activity vs. control (%)” value (3T3-L1 cells [1]; 5 μM) turn out when C[C@H]1CC[C@@]2(OC1)O[C@H]1C[C@H]3[C@@H]4CC[C@@H]5C[C@@H](O)CC[C@]5(C)[C@H]4CC[C@]3(C)[C@H]1[C@@H]2C [Sarsasapogenin, (3β, 5β, 25-S)-Spirostan-3-ol] was run?
Answer: +103% (p < 0.01)

Question: And the “Change in G3PDH activity vs. control (%)” value (3T3-L1 cells [1]; 10 μM)?
Answer: +201% (p < 0.01)

Question: What about the “Change in G3PDH activity vs. control (%)” value (3T3-L1 cells [1]; 15 μM) of the same molecule?
Answer: +429% (p < 0.01)

Question: What about the “Change in G3PDH activity vs. control (%)” value (3T3-L1 cells [1]; 17.5 μM) of the same molecule?
Answer: +535% (p < 0.01)

Question: What about the “lipid incorporation results in human adipocytes” value (human adipocytes) of the same molecule?
Answer: reproduced

Question: What about the “status of gene p21” value (mature adipocytes) of the same molecule?
Answer: activated status of gene p21 was maintained

Question: And the “activation of the gene coding for protein MNT (MAX binding protein)” value ([2]; after 8 and 24 h of differentiation, normalized on solvent controls)?
Answer: induces activation

Question: What about the “cyclin D3 gene up-regulation” value ([2]; normalized on the controls) of the same molecule?
Answer: markedly up-regulated

Question: What about the “gene coding for Kruppel-like factor 5 (KLF5)” value ([2]; normalized on the controls) of the same molecule?
Answer: increase

Question: What about the “induction of NPTXR / pentraxin-related gene” value ([2]; time point 24 h, normalized on the controls) of the same molecule?
Answer: > 7

Question: And the SLC2A5/GLUT5 gene activation [2, 5]?
Answer: activated

Question: What about the “gene RAFTLIN activation” value [2, 5] of the same molecule?
Answer: activated

Question: And the “induction of adipose differentiation-related protein (ADRP) or adipophilin” value ([2]; values normalized on the controls, study and time point not stated)?
Answer: > 4

Question: And the “gene COPS3 up-regulation” value [2, 6]?
Answer: > 5

Question: And the “gene COPS5 up-regulation” value [2, 6]?
Answer: > 5

Question: What about the “increase in KLK10 (kallikrein)” value [2, 6] of the same molecule?
Answer: > 10

Question: What about the “% change in red oil content vs. control” value (3T3-L1 cells [3]; 5 μM) of the same molecule?
Answer: +135%

Question: What about the “% change in red oil content vs. control” value (3T3-L1 cells [3]; 10 μM) of the same molecule?
Answer: +274%

Question: And the “% change in red oil content vs. control” value (3T3-L1 cells [3]; 17.5 μM)?
Answer: +492%

Question: What about the “% change in red oil content vs. control” value (3T3-L1 cells [3]; 17.5 μM, listed as sarsasapogenin) of the same molecule?
Answer: greater than 492%

Question: What about the “Proliferation vs. Control” value (3T3-L1 cells [4]; 5 μM) of the same molecule?
Answer: +20.5% (p < 0.01)

Question: And the “Proliferation vs. Control” value (3T3-L1 cells [4]; 10 μM)?
Answer: +31.6% (p < 0.01)

Question: And the “Proliferation vs. Control” value (3T3-L1 cells [4]; 20 μM)?
Answer: +35.2% (p < 0.01)

Question: For CCc1ccc(CCOc2ccc(CC3SC(=O)NC3=O)cc2)nc1 (stereo not shown) [pioglitazone, reference compound], which “% change in red oil content vs. control” value (3T3-L1 cells [3]; 10 μM) is on record?
Answer: +359%

Question: What about the “Proliferation vs. Control” value (3T3-L1 cells [4]; 10 μM) of the same molecule?
Answer: +49% (p < 0.01)
